According to ChEMBL document CHEMBL1201862, “PubChem BioAssay data set” (2004):
Activity calls are given as the source filed them.

Columns and labels:
[1] = A Cell Based Secondary Assay To Explore Cytotoxicity of Compounds that Sensitize Mycobacterium Tuberculosis to Beta-Lactam Antibiotics.; format: functional
[2] = molecular target: T1, Heat shock factor protein 1 (Mus musculus, UniProt P38532); experiment: decrease of HSF1-responsive luciferase luminescence – cell-based, NIH3T3, dose retest, confirmation (AID 2382); format: functional;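 also: NIH3T3 fibroblasts with HSF1-driven luciferase reporter stressed by proteasome inhibitor MG132; luminescence from HSF1-driven luciferase expression after 8 hours of MG132 stress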
T1 sequence (P38532 whole entry): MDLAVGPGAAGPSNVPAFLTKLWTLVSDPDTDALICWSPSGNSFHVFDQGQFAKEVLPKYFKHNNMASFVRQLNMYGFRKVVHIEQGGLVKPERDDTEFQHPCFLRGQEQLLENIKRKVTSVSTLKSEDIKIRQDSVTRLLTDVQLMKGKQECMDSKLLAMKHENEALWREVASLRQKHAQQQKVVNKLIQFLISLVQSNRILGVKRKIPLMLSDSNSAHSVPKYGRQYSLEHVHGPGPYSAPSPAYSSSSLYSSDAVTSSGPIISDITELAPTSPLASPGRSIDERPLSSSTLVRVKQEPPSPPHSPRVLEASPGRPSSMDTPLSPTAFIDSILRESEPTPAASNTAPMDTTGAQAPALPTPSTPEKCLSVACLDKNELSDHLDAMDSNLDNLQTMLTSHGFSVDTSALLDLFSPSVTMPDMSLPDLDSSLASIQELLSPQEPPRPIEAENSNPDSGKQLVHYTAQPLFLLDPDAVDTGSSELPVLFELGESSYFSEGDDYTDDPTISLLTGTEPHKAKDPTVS

[3] = molecular target: T2, Short transient receptor potential channel 4 (Mus musculus, UniProt Q9QUQ5); experiment: calcium entry via TRPC4 opening agents – cell-based, HEK293 TRPC4/mu-opioid, Fluo-4 calcium, dose response (AID 434937); format: functional
T2 sequence (Q9QUQ5 whole entry): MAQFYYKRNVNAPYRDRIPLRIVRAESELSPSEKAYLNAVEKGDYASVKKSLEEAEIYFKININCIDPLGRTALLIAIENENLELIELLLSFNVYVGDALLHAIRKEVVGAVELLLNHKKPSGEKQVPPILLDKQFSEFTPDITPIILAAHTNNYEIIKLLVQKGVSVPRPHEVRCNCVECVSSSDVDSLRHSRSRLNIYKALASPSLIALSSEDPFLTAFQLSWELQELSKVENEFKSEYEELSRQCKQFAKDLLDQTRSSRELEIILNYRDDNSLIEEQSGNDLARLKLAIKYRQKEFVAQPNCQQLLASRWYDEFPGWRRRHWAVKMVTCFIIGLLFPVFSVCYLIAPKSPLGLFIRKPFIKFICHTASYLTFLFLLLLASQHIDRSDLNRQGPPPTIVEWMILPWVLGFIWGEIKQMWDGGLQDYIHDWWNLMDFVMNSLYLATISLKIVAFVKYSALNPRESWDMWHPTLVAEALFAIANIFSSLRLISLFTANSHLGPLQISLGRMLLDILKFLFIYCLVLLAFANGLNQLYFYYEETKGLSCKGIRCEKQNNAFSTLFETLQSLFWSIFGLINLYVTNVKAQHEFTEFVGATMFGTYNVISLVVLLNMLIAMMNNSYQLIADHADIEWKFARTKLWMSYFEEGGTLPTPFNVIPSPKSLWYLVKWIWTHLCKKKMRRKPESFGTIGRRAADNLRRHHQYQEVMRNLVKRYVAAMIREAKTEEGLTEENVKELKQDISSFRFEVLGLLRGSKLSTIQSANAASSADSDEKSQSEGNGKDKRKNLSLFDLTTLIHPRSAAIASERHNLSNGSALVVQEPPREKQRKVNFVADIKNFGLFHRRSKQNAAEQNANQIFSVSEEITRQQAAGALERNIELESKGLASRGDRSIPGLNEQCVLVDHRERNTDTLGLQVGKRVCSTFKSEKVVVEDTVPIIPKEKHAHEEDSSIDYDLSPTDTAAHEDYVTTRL

[4] = molecular target: Voltage-dependent T-type calcium channel subunit alpha-1H (Homo sapiens, UniProt O95180); format: functional;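 also: channel activity triggered by adding a high calcium stimulation buffer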
[5] = viability of uninfected HEp-2 cells – cell-based, HTS, cytotoxicity control for RSV inhibitor project, dose response (AID 2410); format: functional; settings: human respiratory syncytial virus
Cytochrome P450 2C19 = Cytochrome P450 2C19 (Homo sapiens, UniProt P33261); experiment: Cytochrome panel assay with activity outcomes. Panel member name: p450-cyp2c19 Compounds with AC50 equal or less than 10 uM are considered active; format: functional; settings: read-out: AC50
Cytochrome P450 1A2 = molecular target: T3, Cytochrome P450 1A2 (Homo sapiens, UniProt P05177);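 also: PubChem cytochrome P450 panel assay, CYP1A2 panel member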
T3 sequence (P05177 whole entry): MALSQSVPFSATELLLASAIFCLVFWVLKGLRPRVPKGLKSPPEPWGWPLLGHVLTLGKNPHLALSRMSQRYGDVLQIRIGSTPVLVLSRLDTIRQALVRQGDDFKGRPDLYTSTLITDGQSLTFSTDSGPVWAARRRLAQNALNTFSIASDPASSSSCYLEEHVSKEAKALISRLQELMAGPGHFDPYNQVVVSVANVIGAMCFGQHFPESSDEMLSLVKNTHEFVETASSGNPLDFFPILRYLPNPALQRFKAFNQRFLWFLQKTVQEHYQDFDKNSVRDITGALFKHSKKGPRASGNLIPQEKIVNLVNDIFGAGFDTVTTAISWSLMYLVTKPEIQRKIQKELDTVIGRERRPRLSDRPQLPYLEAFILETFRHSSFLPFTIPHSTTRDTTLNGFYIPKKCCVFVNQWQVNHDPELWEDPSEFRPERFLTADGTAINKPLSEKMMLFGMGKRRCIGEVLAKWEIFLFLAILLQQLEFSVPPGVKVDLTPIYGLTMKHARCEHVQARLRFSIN

Cytochrome P450 2C9 [6] = molecular target: T4, Cytochrome P450 2C9 (Homo sapiens, UniProt P11712)
Aminopeptidase N = molecular target: T5, Aminopeptidase N (Plasmodium falciparum FcB1/Columbia, UniProt O96935); experiment: malaria alanyl aminopeptidase activity blockers – biochemical, fluorogenic H-Leu-NHMec substrate, 1536-well (AID 1445); parameters: species or system Plasmodium falciparum 3D7, 3D7
T5 sequence (O96935 whole entry): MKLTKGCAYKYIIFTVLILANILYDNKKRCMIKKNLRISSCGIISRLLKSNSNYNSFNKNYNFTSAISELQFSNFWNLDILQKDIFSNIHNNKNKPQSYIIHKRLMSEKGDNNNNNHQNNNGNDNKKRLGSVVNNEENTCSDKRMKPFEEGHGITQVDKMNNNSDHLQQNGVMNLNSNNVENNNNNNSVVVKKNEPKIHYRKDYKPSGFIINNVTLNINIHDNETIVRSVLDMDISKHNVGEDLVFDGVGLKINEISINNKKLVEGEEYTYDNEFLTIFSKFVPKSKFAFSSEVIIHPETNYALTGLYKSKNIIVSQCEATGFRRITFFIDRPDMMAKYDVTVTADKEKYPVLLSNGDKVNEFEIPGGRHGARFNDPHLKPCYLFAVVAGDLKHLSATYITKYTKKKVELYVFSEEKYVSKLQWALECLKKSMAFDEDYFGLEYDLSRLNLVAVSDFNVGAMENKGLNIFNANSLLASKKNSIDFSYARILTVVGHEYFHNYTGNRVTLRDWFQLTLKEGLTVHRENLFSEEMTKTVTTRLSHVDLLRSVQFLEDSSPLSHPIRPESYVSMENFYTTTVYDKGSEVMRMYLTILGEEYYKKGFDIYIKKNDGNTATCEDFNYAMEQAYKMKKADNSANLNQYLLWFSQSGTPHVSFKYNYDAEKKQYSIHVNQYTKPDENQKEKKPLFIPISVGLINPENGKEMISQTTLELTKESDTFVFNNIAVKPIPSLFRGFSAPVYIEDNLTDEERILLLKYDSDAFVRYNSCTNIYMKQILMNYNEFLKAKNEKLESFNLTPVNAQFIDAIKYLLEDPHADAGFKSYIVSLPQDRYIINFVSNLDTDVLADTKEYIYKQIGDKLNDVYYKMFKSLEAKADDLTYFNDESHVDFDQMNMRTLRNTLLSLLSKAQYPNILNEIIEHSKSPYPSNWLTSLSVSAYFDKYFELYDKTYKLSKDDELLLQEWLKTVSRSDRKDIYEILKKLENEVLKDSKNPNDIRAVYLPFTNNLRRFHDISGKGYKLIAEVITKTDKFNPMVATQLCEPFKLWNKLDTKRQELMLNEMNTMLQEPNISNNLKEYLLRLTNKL

[7] = molecular target: T6, Corticotropin-releasing factor receptor 2/Corticotropin-releasing factor-binding protein (Homo sapiens, UniProt P24387+Q13324); experiment: Dose Response confirmation of uHTS hits for small molecule antagonists of the CRF-binding protein and CRF-R2 receptor complex.; format: functional; settings: read-out: IC50_Mean
T6 sequence (Q13324 whole entry): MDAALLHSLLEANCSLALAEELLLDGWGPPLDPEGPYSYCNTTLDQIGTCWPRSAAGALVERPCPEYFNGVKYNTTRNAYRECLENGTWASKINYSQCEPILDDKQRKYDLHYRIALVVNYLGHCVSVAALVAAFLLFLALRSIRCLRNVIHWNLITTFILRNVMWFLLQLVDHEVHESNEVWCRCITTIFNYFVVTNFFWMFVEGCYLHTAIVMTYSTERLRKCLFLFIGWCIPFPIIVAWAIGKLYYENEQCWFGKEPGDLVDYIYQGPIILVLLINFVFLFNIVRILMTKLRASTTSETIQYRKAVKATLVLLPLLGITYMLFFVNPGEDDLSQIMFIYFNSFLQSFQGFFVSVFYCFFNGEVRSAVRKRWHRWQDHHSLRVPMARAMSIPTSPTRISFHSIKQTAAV
T6 sequence (P24387 whole entry): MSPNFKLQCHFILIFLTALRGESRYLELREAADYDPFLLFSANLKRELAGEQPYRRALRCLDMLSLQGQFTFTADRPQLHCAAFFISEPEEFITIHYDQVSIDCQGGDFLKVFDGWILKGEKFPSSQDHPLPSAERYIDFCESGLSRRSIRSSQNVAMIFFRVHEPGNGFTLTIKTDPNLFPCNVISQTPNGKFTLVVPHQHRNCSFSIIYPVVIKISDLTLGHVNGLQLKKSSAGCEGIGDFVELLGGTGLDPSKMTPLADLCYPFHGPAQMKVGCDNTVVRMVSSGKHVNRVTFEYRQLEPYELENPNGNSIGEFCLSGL

[8] = molecular target: T6, Corticotropin-releasing factor receptor 2/Corticotropin-releasing factor-binding protein; experiment: activators of CRF receptor 2 with binding protein – uHTS hits, confirmation (AID 602473); format: functional; settings: read-out: EC50_Mean
[9] = blockers of CRF-binding protein–CRF-R2 complex – cell-based, uHTS hits, 384-well, dose response (AID 651639); format: functional, Homo sapiens; settings: read-out: IC50_Mean
Cytochrome P450 2C9 [10] = molecular target: T4, Cytochrome P450 2C9; remark: listed apart in the source
H9c2 = experiment: cells; format: functional, cell-based; settings: Rattus norvegicus, H9c2, Myocardium

Chain of Voltage-dependent T-type calcium channel subunit alpha-1H (O95180 whole entry): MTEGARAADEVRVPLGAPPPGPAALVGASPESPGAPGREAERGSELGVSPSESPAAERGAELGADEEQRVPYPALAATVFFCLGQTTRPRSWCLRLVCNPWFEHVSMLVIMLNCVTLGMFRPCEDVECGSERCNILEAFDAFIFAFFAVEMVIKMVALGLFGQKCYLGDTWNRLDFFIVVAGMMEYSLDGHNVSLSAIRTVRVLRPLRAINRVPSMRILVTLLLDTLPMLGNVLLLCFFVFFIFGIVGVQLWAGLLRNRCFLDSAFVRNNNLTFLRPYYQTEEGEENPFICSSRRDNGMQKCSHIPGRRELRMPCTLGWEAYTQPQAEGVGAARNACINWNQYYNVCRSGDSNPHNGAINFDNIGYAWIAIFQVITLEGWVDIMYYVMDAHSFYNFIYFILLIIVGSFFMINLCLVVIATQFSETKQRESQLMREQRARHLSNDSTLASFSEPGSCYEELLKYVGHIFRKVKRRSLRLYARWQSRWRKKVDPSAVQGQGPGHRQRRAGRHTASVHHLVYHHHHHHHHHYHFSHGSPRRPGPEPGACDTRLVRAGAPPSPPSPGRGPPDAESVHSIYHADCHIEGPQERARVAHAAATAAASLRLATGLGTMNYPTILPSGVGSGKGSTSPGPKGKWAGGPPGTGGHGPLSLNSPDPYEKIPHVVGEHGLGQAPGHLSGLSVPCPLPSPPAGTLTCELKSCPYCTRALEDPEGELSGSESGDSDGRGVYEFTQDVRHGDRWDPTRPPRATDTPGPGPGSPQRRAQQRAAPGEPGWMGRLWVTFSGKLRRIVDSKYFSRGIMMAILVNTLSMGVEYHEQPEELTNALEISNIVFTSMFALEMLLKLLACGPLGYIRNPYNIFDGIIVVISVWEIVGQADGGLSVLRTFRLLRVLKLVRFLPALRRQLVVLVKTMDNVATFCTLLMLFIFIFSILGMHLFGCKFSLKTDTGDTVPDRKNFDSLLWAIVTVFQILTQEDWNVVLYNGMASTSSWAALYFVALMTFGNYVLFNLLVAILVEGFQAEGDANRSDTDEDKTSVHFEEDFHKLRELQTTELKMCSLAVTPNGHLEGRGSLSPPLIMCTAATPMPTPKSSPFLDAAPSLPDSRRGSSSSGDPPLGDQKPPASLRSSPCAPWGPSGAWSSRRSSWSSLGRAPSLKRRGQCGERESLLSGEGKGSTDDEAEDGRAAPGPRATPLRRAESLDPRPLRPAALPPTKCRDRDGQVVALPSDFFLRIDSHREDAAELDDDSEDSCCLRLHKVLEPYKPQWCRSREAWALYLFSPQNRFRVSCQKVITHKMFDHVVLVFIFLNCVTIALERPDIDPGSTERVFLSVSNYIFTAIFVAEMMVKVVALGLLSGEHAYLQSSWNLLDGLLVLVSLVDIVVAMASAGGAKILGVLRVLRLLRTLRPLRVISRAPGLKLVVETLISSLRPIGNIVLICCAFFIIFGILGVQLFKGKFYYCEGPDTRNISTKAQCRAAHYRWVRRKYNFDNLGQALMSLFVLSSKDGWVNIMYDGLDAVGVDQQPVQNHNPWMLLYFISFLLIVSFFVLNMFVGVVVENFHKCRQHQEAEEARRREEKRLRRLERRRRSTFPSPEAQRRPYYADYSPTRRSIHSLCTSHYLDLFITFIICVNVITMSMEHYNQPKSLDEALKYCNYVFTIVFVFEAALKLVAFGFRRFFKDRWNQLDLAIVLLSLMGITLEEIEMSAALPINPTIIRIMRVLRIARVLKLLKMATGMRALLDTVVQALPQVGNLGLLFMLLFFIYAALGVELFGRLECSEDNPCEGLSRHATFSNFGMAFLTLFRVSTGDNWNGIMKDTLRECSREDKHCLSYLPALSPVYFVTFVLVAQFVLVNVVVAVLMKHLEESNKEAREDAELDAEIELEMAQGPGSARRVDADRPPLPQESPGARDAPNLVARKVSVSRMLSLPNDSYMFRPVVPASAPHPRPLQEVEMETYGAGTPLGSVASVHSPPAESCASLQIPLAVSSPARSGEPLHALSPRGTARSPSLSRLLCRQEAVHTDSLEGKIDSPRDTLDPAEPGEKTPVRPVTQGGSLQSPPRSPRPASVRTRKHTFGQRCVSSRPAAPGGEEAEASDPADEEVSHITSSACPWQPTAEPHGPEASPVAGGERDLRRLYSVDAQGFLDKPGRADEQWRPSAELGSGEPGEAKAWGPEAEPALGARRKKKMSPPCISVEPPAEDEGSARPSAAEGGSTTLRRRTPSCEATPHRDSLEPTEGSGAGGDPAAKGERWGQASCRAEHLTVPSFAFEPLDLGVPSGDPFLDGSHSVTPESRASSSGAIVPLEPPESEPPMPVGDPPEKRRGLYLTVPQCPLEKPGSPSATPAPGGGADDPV
T4 sequence (P11712 whole entry): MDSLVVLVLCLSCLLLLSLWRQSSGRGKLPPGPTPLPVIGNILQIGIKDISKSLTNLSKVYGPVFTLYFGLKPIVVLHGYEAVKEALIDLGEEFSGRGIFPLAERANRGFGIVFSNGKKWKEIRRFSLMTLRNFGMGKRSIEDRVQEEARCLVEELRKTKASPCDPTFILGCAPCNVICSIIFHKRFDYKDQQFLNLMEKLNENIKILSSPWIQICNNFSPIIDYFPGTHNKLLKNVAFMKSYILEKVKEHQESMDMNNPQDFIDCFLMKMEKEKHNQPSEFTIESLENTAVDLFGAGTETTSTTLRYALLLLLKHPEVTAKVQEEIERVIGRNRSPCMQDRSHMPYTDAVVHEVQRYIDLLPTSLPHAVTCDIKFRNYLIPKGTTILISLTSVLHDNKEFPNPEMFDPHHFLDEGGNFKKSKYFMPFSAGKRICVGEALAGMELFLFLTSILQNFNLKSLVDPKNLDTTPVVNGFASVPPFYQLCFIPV
Chain of Cytochrome P450 2C19 (P33261 whole entry): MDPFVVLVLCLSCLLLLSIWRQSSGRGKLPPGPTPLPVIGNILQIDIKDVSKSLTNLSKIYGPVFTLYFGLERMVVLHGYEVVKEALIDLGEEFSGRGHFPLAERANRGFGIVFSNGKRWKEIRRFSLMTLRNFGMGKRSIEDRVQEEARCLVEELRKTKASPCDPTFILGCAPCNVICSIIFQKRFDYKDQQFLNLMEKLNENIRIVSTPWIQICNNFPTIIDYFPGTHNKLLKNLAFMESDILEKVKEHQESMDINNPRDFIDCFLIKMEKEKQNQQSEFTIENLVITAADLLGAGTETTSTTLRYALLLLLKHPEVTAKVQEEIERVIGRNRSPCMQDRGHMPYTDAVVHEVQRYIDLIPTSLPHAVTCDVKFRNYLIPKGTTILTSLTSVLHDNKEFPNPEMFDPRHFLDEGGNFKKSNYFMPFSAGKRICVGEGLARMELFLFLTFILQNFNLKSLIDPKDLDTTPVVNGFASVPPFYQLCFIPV

## CC(/C=C(\NC(=O)c1ccccc1)C(=O)N=Nc1c(O)[nH]c2ccc(C)cc12)=C\c1ccccc1
[1]
  CC50: 33.7 µM (active)
[2]
  EC50: 16.1 µM (active)

## Cc1ccc(C)c(NC(S)=NCCc2c[nH]cn2)c1
[3]
  EC50: 2.66 µM (active)

## Cc1ccc(-n2nc(C)c3c2NC(=O)CSC3c2ccc3c(c2)OCO3)cc1 (stereo unspecified)
[2]
  EC50: > 195 µM (not active)
[4]
  EC50: 6.71 µM (active)

## O=C(Nc1cccc2ccccc12)N1CCCN(c2c(Cl)cncc2Cl)CC1
[1]
  CC50: > 40 µM (active)

## O=C(c1ccc(-c2ccccc2Cl)s1)N1CCOCC1
[5]
  CC50: > 50 µM (active)

## Fc1ccc(N2CCN(c3ccc4c(C(F)(F)F)cc(C(F)(F)F)nc4n3)CC2)cc1
[4]
  EC50: 4.13 µM (active)
Cytochrome P450 2C19
  AC50: 22.4 µM (inconclusive)
Cytochrome P450 1A2
  AC50: 5.01 µM (inconclusive)
Cytochrome P450 2C9 [6]
  AC50: inconclusive

## Cc1ccc(S(=O)(=O)c2nc(NCCN(C)C)sc2Cl)cc1
Aminopeptidase N
  IC50: 12.7 µM (active)

## Cc1nn(-c2cc(C(F)(F)F)ccc2Cl)c2nc(C(Cl)(Cl)Cl)nc(O)c12
[7]
  IC50: 5.2 µM (active)
[8]
  EC50: > 53 µM (inactive)
[9]
  IC50: 11.1 µM (active)

## O=C(CSc1nc2ccsc2c(=O)n1NC(=O)c1ccccc1)NCc1ccco1
Aminopeptidase N
  IC50: 72.1 µM (active)

## CSc1cccc(NC(=O)CN(c2ccc(C)cc2C)S(C)(=O)=O)c1
[4]
  EC50: 4.13 µM (active)

## Cn1c(=S)[nH]c2sc3c(c2c1=O)CCC(C(C)(C)C)C3 (stereo unspecified)
[1]
  CC50: 10.7 µM (active)

## CC1CCCCC1NC(=O)CCCCCn1c(=S)[nH]c2ccsc2c1=O (stereo unspecified)
[7]
  IC50: < 0.368 µM (active)
[8]
  EC50: > 53 µM (inactive)
[9]
  IC50: > 20 µM (inactive)

## CC(C)Cc1csc(NC(=O)c2ccc(Cl)cc2)c1C(=O)O
[7]
  IC50: 5.06 µM (active)
[8]
  EC50: 25.8 µM (active)
[9]
  IC50: 17.8 µM (active)

## NS(=O)(=O)c1ccc(N2N=C(c3ccccc3)CC2c2cccc(F)c2)cc1 (stereo unspecified)
Aminopeptidase N
  IC50: 47.6 µM (active)

## O=C(CS(=O)(=O)Cc1ccccc1)N1CCN(c2cccc(C(F)(F)F)c2)CC1
Aminopeptidase N
  IC50: 105 µM (active)

## N#Cc1c(NC(=O)CSc2nc(-c3ccco3)cc(C(F)(F)F)n2)sc2c1CCCC2
[1]
  CC50: > 40 µM (active)

## CCCCN(CCCC)CP(=O)(c1ccccc1)c1ccccc1
[4]
  EC50: 11.4 µM (active)

## CCCCOC1CC(c2ccc(OCc3ccc(OC)cc3)c(OC)c2)N(C)O1 (stereo unspecified)
[7]
  IC50: 15.4 µM (active)
[8]
  EC50: > 53 µM (inactive)
[9]
  IC50: > 20 µM (inactive)

## Cc1cccc(-c2nc(CN3CCCC(C(=O)NC4CCCCC4)C3)c(C)o2)c1 (stereo unspecified)
[4]
  EC50: 2.14 µM (active)
Cytochrome P450 1A2
  AC50: 20 µM (inconclusive)
Cytochrome P450 2C9 [10]
  AC50: 28.2 µM (inconclusive)

## O=C1CC(c2ccc(Cl)cc2)SC(N(c2ccccc2)c2ccccc2)=N1 (stereo unspecified)
[7]
  IC50: 13.8 µM (active)
[8]
  EC50: > 53 µM (inactive)
[9]
  IC50: 14.9 µM (active)

## O=C(CCn1nc(-c2ccccc2)c2ccccc2c1=O)N1CCN(c2ccccc2)CC1
[4]
  EC50: 7.63 µM (active)
H9c2
  IC50: > 79 µM (inactive)

## Cc1ccc(NC(S)=NCCc2c[nH]cn2)cc1C
[3]
  EC50: 0.267 µM (active)

## C/C(N)=C(/C#N)C(=O)COC(=O)c1cc(-c2cccc(Br)c2)nc2ccccc12
[5]
  CC50: 12.2 µM (active)
